Values of other authors as cited in patent US20070037707A1, “Plant growth regulator formulations” (HELENA HOLDING COMPANY, priority 2005, published 2007).

Legend:
[1] = not given; remark: listed apart in the source
organically grown cotton = details: used alone; compared with conventional chemistry like (2-chloroethyl) phosphonic acid

Compound	pH of the pure product (according to the MSDS sheet for a formulated product)	pH range in which stable (at higher pH decomposes and liberates ethylene, Pesticide Manual)	water solubility [1]	effectiveness as cotton defoliant (organically grown cotton)
O=P(O)(O)CCCl [(2-chloroethyl)phosphonic acid]	1.7	below 3.5	water soluble	
O=C(O)CC(O)(CC(=O)O)C(=O)O [Citric acid]				not as effective
